# Assay results: ChEMBL document CHEMBL1153245, “A profile of the in vitro anti-tumor activity of imidazolium-based ionic liquids” (2010)
# Legend:
# Format in all cases: functional
# [1] = system: MOLT-4; assay: Anticancer activity against human MOLT4 cells assessed cell growth at 10 uM after 48 hrs by sulforhodamine B assay relative to control
# [2] = system: HCC 2998; assay: Anticancer activity against human HCC2998 cells assessed cell growth at 10 uM after 48 hrs by sulforhodamine B assay relative to control
# [3] = system: HT-29; assay: Anticancer activity against human HT-29 cells assessed cell growth at 10 uM after 48 hrs by sulforhodamine B assay relative to control
# [4] = system: RXF 393; assay: Anticancer activity against human RXF393 cells assessed cell growth at 10 uM after 48 hrs by sulforhodamine B assay relative to control
# [5] = system: A549; assay: Anticancer activity against human A549 cells assessed cell growth at 10 uM after 48 hrs by sulforhodamine B assay relative to control
# [6] = system: BT-549; assay: Anticancer activity against human BT549 cells assessed cell growth at 10 uM after 48 hrs by sulforhodamine B assay relative to control
# [7] = system: CCRF-CEM; assay: Anticancer activity against human CCRF-CEM cells assessed cell growth at 10 uM after 48 hrs by sulforhodamine B assay relative to control
# [8] = system: LOX IMVI; assay: Anticancer activity against human LOXIMVI cells assessed cell growth at 10 uM after 48 hrs by sulforhodamine B assay relative to control
# [9] = system: MDA-MB-468; assay: Anticancer activity against human MDA-MB-468 cells assessed cell growth at 10 uM after 48 hrs by sulforhodamine B assay relative to control
# [10] = system: COLO 205; assay: Anticancer activity against human COLO205 cells assessed cell growth at 10 uM after 48 hrs by sulforhodamine B assay relative to control
# [11] = system: UACC-257; assay: Anticancer activity against human UACC257 cells assessed cell growth at 10 uM after 48 hrs by sulforhodamine B assay relative to control
# [12] = system: SNB-19; assay: Anticancer activity against human SNB19 cells assessed cell growth at 10 uM after 48 hrs by sulforhodamine B assay relative to control
# [13] = system: SNB-75; assay: Anticancer activity against human SNB75 cells assessed cell growth at 10 uM after 48 hrs by sulforhodamine B assay relative to control
# [14] = system: K562; assay: Anticancer activity against human K562 cells assessed cell growth at 10 uM after 48 hrs by sulforhodamine B assay relative to control
# [15] = system: IGROV-1; assay: Anticancer activity against human IGROV1 cells assessed cell growth at 10 uM after 48 hrs by sulforhodamine B assay relative to control
# [16] = system: SK-MEL-2; assay: Anticancer activity against human SK-MEL-2 cells assessed cell growth at 10 uM after 48 hrs by sulforhodamine B assay relative to control
# [17] = system: NCI-H226; assay: Anticancer activity against human NCI-H226 cells assessed cell growth at 10 uM after 48 hrs by sulforhodamine B assay relative to control
# [18] = system: DU-145; assay: Anticancer activity against human DU145 cells assessed cell growth at 10 uM after 48 hrs by sulforhodamine B assay relative to control
# [19] = system: SF-539; assay: Anticancer activity against human SF539 cells assessed cell growth at 10 uM after 48 hrs by sulforhodamine B assay relative to control
# [20] = system: SR; assay: Anticancer activity against human SR cells assessed cell growth at 10 uM after 48 hrs by sulforhodamine B assay relative to control
# [21] = system: MDA-MB-231; assay: Anticancer activity against human MDA-MB-231 cells assessed cell growth at 10 uM after 48 hrs by sulforhodamine B assay relative to control
# [22] = system: U-251; assay: Anticancer activity against human U251 cells assessed cell growth at 10 uM after 48 hrs by sulforhodamine B assay relative to control
# [23] = system: HOP-62; assay: Anticancer activity against human HOP62 cells assessed cell growth at 10 uM after 48 hrs by sulforhodamine B assay relative to control
# [24] = system: OVCAR-3; assay: Anticancer activity against human OVCAR-3 cells assessed cell growth at 10 uM after 48 hrs by sulforhodamine B assay relative to control
# [25] = system: NCI-H522; assay: Anticancer activity against human NCI-H522 cells assessed cell growth at 10 uM after 48 hrs by sulforhodamine B assay relative to control
# [26] = system: UO-31; assay: Anticancer activity against human UO31 cells assessed cell growth at 10 uM after 48 hrs by sulforhodamine B assay relative to control
# [27] = system: NCI-H23; assay: Anticancer activity against human NCI-H23 cells assessed cell growth at 10 uM after 48 hrs by sulforhodamine B assay relative to control
# [28] = system: OVCAR-4; assay: Anticancer activity against human OVCAR4 cells assessed cell growth at 10 uM after 48 hrs by sulforhodamine B assay relative to control
# [29] = system: NCI/ADR-RES; assay: Anticancer activity against human NCI/ADR-RES cells assessed cell growth at 10 uM after 48 hrs by sulforhodamine B assay relative to control
# [30] = system: SN12C; assay: Anticancer activity against human SN12C cells assessed cell growth at 10 uM after 48 hrs by sulforhodamine B assay relative to control
# [31] = system: M14; assay: Anticancer activity against human M14 cells assessed cell growth at 10 uM after 48 hrs by sulforhodamine B assay relative to control
# [32] = system: NCI-H460; assay: Anticancer activity against human NCI-H460 cells assessed cell growth at 10 uM after 48 hrs by sulforhodamine B assay relative to control
# [33] = system: SK-MEL-5; assay: Anticancer activity against human SK-MEL-5 cells assessed cell growth at 10 uM after 48 hrs by sulforhodamine B assay relative to control
# [34] = system: NCI-H322M; assay: Anticancer activity against human NCI-H322M cells assessed cell growth at 10 uM after 48 hrs by sulforhodamine B assay relative to control
# [35] = system: CAKI-1; assay: Anticancer activity against human Caki1 cells assessed cell growth at 10 uM after 48 hrs by sulforhodamine B assay relative to control
# [36] = system: UACC-62; assay: Anticancer activity against human UACC62 cells assessed cell growth at 10 uM after 48 hrs by sulforhodamine B assay relative to control
# [37] = system: PC-3; assay: Anticancer activity against human PC3 cells assessed cell growth at 10 uM after 48 hrs by sulforhodamine B assay relative to control
# [38] = system: Malme-3M; assay: Anticancer activity against human MALME-3M cells assessed cell growth at 10 uM after 48 hrs by sulforhodamine B assay relative to control
# [39] = system: HL-60(TB); assay: Anticancer activity against human HL-60(TB) cells assessed cell growth at 10 uM after 48 hrs by sulforhodamine B assay relative to control
# [40] = system: HOP-92; assay: Anticancer activity against human HOP92 cells assessed cell growth at 10 uM after 48 hrs by sulforhodamine B assay relative to control
# [41] = system: SK-MEL-28; assay: Anticancer activity against human SK-MEL-28 cells assessed cell growth at 10 uM after 48 hrs by sulforhodamine B assay relative to control
# [42] = system: ACHN; assay: Anticancer activity against human ACHN cells assessed cell growth at 10 uM after 48 hrs by sulforhodamine B assay relative to control
# [43] = Anticancer activity against human RPMI8266 cells assessed cell growth at 10 uM after 48 hrs by sulforhodamine B assay relative to control
smiles,measurement,setting,value
CCCCCCCC[n+]1ccn(C)c1.[Cl-],Activity,[1],81.09%
same,Activity,[2],77.19%
same,Activity,[3],69.97%
same,Activity,[4],78.03%
same,Activity,[5],85.73%
same,Activity,[6],81.23%
same,Activity,[7],121.49%
same,Activity,[8],71.93%
same,Activity,[9],46.81%
same,Activity,[10],97.68%
same,Activity,[11],83.24%
same,Activity,[12],91.91%
same,Activity,[13],83.9%
same,Activity,[14],63.96%
same,Activity,[15],96.33%
same,Activity,[16],85.11%
same,Activity,[17],75.79%
same,Activity,[18],99.82%
same,Activity,[19],71.01%
same,Activity,[20],88.57%
same,Activity,[21],74.81%
same,Activity,[22],79.77%
same,Activity,[23],90.78%
same,Activity,[24],81.96%
same,Activity,[25],72.78%
same,Activity,[26],85.09%
same,Activity,[27],62.26%
same,Activity,[28],61.98%
same,Activity,[29],95.09%
same,Activity,[30],93.85%
same,Activity,[31],87.47%
same,Activity,[32],101.53%
same,Activity,[33],86.81%
same,Activity,[34],95.53%
same,Activity,[35],66.65%
same,Activity,[36],81.12%
same,Activity,[37],97.45%
same,Activity,[38],80.97%
same,Activity,[39],94.06%
same,Activity,[40],106.43%
same,Activity,[41],120.13%
same,Activity,[42],75.93%
same,Activity,[43],122.18%
CCCCCCCC[n+]1ccn(C)c1.F[P-](F)(F)(F)(F)F,Activity,[1],86.46%
same,Activity,[2],75.73%
same,Activity,[3],61.42%
same,Activity,[4],83.22%
same,Activity,[5],82.75%
same,Activity,[6],60.35%
same,Activity,[7],84.88%
same,Activity,[8],70.03%
same,Activity,[9],21%
same,Activity,[10],66.27%
same,Activity,[11],72.49%
same,Activity,[12],82.83%
same,Activity,[13],70.71%
same,Activity,[14],70.78%
same,Activity,[15],76.25%
same,Activity,[16],83.03%
same,Activity,[17],72.91%
same,Activity,[18],99.58%
same,Activity,[19],67.02%
same,Activity,[20],95.02%
same,Activity,[21],65.53%
same,Activity,[22],70.41%
same,Activity,[23],79.02%
same,Activity,[24],86.51%
same,Activity,[25],65.58%
same,Activity,[26],77.77%
same,Activity,[27],51.9%
same,Activity,[28],52.01%
same,Activity,[29],97.14%
same,Activity,[30],86.03%
same,Activity,[31],81.87%
same,Activity,[32],92.86%
same,Activity,[33],76.82%
same,Activity,[34],89.47%
same,Activity,[35],56.66%
same,Activity,[36],90.01%
same,Activity,[37],74.78%
same,Activity,[38],62.25%
same,Activity,[39],91.74%
same,Activity,[40],96.72%
same,Activity,[41],95.95%
same,Activity,[42],67.29%
same,Activity,[43],135.51%
CCCCCCCC[n+]1ccn(C)c1.F[B-](F)(F)F,Activity,[1],92.94%
same,Activity,[2],70.57%
same,Activity,[3],70.49%
same,Activity,[4],104.98%
same,Activity,[5],89.22%
same,Activity,[6],64.81%
same,Activity,[7],45.61%
same,Activity,[8],72.64%
same,Activity,[9],39.75%
same,Activity,[10],77.64%
same,Activity,[11],87.94%
same,Activity,[12],81.8%
same,Activity,[13],84.84%
same,Activity,[14],81.46%
same,Activity,[15],85.75%
same,Activity,[16],90.35%
same,Activity,[17],75.04%
same,Activity,[18],95.55%
same,Activity,[19],74.98%
same,Activity,[20],87.14%
same,Activity,[21],78.93%
same,Activity,[22],73.04%
same,Activity,[23],91.23%
same,Activity,[24],102.92%
same,Activity,[25],69.23%
same,Activity,[26],76.51%
same,Activity,[27],59.28%
same,Activity,[28],66.15%
same,Activity,[29],91.95%
same,Activity,[30],97.45%
same,Activity,[31],87.56%
same,Activity,[32],98.66%
same,Activity,[33],81.77%
same,Activity,[34],101.83%
same,Activity,[35],60.04%
same,Activity,[36],90.08%
same,Activity,[37],83.86%
same,Activity,[38],80.13%
same,Activity,[39],64.63%
same,Activity,[40],87.53%
same,Activity,[41],105.03%
same,Activity,[42],70.72%
same,Activity,[43],64.64%
CCCCCCCCOS(=O)(=O)[O-].CCCCCCCC[n+]1ccn(C)c1,Activity,[1],86.99%
same,Activity,[2],69.81%
same,Activity,[3],67.62%
same,Activity,[4],84%
same,Activity,[5],82.78%
same,Activity,[6],67.86%
same,Activity,[7],97.94%
same,Activity,[8],68.86%
same,Activity,[9],38.15%
same,Activity,[10],82.4%
same,Activity,[11],78.7%
same,Activity,[12],82.22%
same,Activity,[13],84.66%
same,Activity,[14],93.71%
same,Activity,[15],72.84%
same,Activity,[16],83.39%
same,Activity,[17],74.07%
same,Activity,[18],96.94%
same,Activity,[19],65.31%
same,Activity,[20],82.08%
same,Activity,[21],66.28%
same,Activity,[22],71.96%
same,Activity,[23],90.54%
same,Activity,[24],81.64%
same,Activity,[25],57.44%
same,Activity,[26],71.08%
same,Activity,[27],56.59%
same,Activity,[28],60.6%
same,Activity,[29],94.1%
same,Activity,[30],92.64%
same,Activity,[31],84%
same,Activity,[32],95.98%
same,Activity,[33],74.87%
same,Activity,[34],89.12%
same,Activity,[35],56.81%
same,Activity,[36],85.18%
same,Activity,[37],94.3%
same,Activity,[38],80.15%
same,Activity,[39],82.07%
same,Activity,[40],107.58%
same,Activity,[41],112.15%
same,Activity,[42],67.5%
same,Activity,[43],116.11%
